Measurements: patent US20070004634A1 (Novo Nordisk A/S, priority 1998, published 2007)
No end group written: not given here.

Columns and labels:
IGF-1R = IGF-1R (Homo sapiens, UniProt P08069); assay: Phage ELISA, binding of phage clones to IGF-1R (ratio over background); details: ratio of IGF-1R divided by ratio of IR
Experimental: HIT indicates binder; CAND indicates binder candidate; LDH indicates binding to lactate dehydrogenase (negative control); Sp/Irr indicates the ratio of specific binding over non-specific binding.
Sp/Irr=the ratio of specific binding over non-specific binding; LDH=lactate dehydrogenase (negative control).
For phage pools, cells from frozen stocks were grown and phage were prepared as described above. For analysis of individual clones, colonies were picked and phage prepared as described above. Subsequent steps were the same for pooled and clonal phage. Microtiter wells were coated and blocked as described above. […] Phage resuspended in MPBS (PBS containing 2% non-fat milk) were added to wells (100 μl/well) and incubated at room temperature for 1 h. The phage solution was then removed, and the wells were washed three times with PBS at room temperature.
Anti-M13 antibody conjugated to horseradish peroxidase (Pharmacia Biotech) was diluted 1:3000 in MPBS and added to each well (100 μl/well). Incubation was for another hour at room temperature, followed by PBS washes as described. Color was developed by addition of ABTS solution (100 μl/well; Boehringer). […] Data points were averaged after subtraction of appropriate blanks. A clone was considered “positive” if the A405 of the well was ≧2-fold over background.

IR = IR (Homo sapiens, UniProt P06213); assay: Phage ELISA, binding of phage clones to IR (ratio over background); details: ratio of IR divided by ratio of IGF-1R

Substance	Comparisons IGF-1R/IR (IGF-1R)	Comparisons IR/IGF-1R (IR)
LSVALSFYDALGQLVAGEGRW [20E2A-3-A12-IGFR]	3.9	0.3
LGVTDGFYAALGYLIHGVGQF [20E2B-3-D11-IGFR]	7.6	0.1
RAGSSDFHEDFYEWFVRQVSLSLKGK [H2CA-2-B9-IGFR]	4.2	0.2
YSCGDGFYSLLSDLLGGQFRC [20E2B-4-H12-IGFR]	12.8	0.1
GVRAMSFYDALVSVLGLGPSG [20E2B-1-A6-IGFR]	16.8	0.1
VVTPVNFYRALEALVRG.RLG (VVTPVNFYRALEALVRGXRLG; not fully specified; printed as VVTPVNFYRALEALVRG.RLG; X: residue not identified in the source; ends and bridges not checked) [20E2B-2-B11-IGFR]	9.4	0.1
PVGVQGFYEGLSRLVLGRGGW [20E2B-4-F8-IGFR]	9.7	0.1
LRIANLFYQRLWDLAFGGGG [20E2B-3-E8-IFGR]	11.1	0.1
NSRDGGFYLQLERLLGFPVTG [20E2B-3-D4-IGFR]	9.6	0.1
FFYDCLAALLQGVARYHDLCAVEIT [20C-4-C7-IGFR]	21.8	<0.1
SSYGCDGFYLMLFSLGLVASQELEC [20C-3-A1-IGFR]	13.7	0.1
GNGDGMFYQLLSLLVGRDMHV [20E2B-3-C2-IGFR]	13.8	0.1
PGTDLGFYQALRCVVIQGACD [20E2B-2-B2-IGFR]	8.1	0.1
MMVVDGFYDALHQLVVAQSLG [20E2A-3-D10-IGFR]	3.9	0.3

Further lines, results first:

Comparisons IGF-1R/IR (IGF-1R)	Comparisons IR/IGF-1R (IR)	Substance
11.0	0.1	RCGRW*AEMGAGDDPFYHKLSELVCG (RCGRWXAEMGAGDDPFYHKLSELVCG; not fully specified; X: residue not identified in the source; cysteine pairing not given here) [Peptide B6Hα-2-C4-IR]
17.3	0.1	RGQSDAFYSGLWALIGLSDG [Peptide R20β-4-A6-IR]
2.5	0.4	TSEVQRRSQDNFYDWFVAQVA [Peptide A6S-3-E2-IR]
9.4	0.1	SACQFDCHENFYDWFARQVSGGAAYG [H2CA-4-H8-IGFR]
15.5	0.1	LKDGFYDYFWQRLHLGS [NNRPγ-4-B11-IR]
4.8	0.2	RGKTAAVIVGRPADPFYHKLSELLQGG [Peptide B6Hα-3-E8-IR]
2.9	0.3	GCITAENGAGDPFYHKLSELGGCS [Peptide B6Hα-1-B3-IR]
17.0	0.1	YRGMLVLGRSSDGAGKVAFERPARIGQTVFAVNFYDWFV [Peptide A6L-0-E6-IR]
3.0	0.3	AICDAGFHEHFYDWFALQVSDCGRQS [H2CA-2-B11-IGFR]
3.0	0.3	RGAVAGFHDQFYDWFDRQVSRVHKFG [H2CA-4-H9-IGFR]
13.0	0.1	YRGMLVLGRISDGAG#VASEPPARIGRKVFAVNFYDWFV [Peptide A6L-0-E4-IR]
4.1	0.2	SSIGGGEHENFYDWFSRQLSQSPPLK [H2CA-4-F7-IGFR]
4.2	0.2	GCEVIVEEGDSADPFYHKLSELCQGS [Peptide B6Hα-2-D1-IR]
